Patent US20210246122A1, “Triazine Compounds and Uses Thereof” (Aduro Biotech, Inc., priority 2018, published 2021)

Tests used:
[1] = target: T1, Human cGAS amino acids 155-522 (Homo sapiens, UniProt Q8N884); assay: cGAS activity assay (DNA-activated cGAS, remaining ATP measured by Kinase-Glo Max luciferase assay); type: biochemical; settings: 300 nM purified cGAS, 1 μM dsDNA, 250 μM ATP, 100 μM GTP, 37° C. for 1.25 hours
T1 construct: hexahistidine tag (N, cleaved yes); made in house; host or cells: E. coli BL21 DE3 Rosetta 2
Method in brief: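 Recombinant human cGAS 155-522 (300 nM) activated by 1 μM annealed dsDNA, run at 37° C for 1.25 h in Tris pH 9 buffer with 250 μM ATP and 100 μM GTP, 5% final DMSO. Compounds from 1 μM in 3- or 4-fold dilutions; remaining ATP read by luciferase luminescence, normalized to no-compound wells.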

cGAS/STING pathway = assay: THP1 cell-based cGAS/STING pathway activity assay (luciferase reporter linked to IRF-3 activation); settings: Homo sapiens, THP-1; THP1 cells, IRF-3 linked luciferase reporter
Experimental: A cellular assay can be used to assess the compounds of the invention for their ability to inhibit the cGAS/STING pathway. Cells that express a luciferase-based reporter that is linked to IRF-3 activation are used to determine response as a function of compound concentration. Such an assay is described in Vincent et al., Nature Communications 2017, 8(1):750, doi: 10.1038/s41467-017-00833-9. Compounds of the invention were assessed using similar assay methods in a THP1 cell assay to generate IC50 values as provided in the following Table 8. In this table, activity level “A” indicates an IC50 value less than 20 μM, “B” indicates an IC50 value between 20 and 100 μM, and “C” indicates an IC50 value above the upper limit of the assay (100 μM), or where an IC50 value could not be generated from the data.

T1 sequence (Q8N884 157-522): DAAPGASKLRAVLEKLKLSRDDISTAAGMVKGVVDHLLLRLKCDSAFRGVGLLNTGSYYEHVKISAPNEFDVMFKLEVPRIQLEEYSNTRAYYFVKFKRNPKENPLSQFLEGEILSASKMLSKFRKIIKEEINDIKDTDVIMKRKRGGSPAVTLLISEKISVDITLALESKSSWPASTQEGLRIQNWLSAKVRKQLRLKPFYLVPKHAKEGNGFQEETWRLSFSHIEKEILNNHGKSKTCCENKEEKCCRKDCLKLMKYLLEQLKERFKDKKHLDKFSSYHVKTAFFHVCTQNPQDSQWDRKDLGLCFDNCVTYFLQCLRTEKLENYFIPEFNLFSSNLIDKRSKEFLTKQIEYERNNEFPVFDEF

| IC50 [1] | IC50 (cGAS/STING pathway) | SMILES |
| --- | --- | --- |
| < 20 µM | > 100 µM | COC(=O)[C@H](Cc1ccc(C#N)cc1)Nc1nc(NCc2nc3cc(F)ccc3[nH]2)nc(Nc2cccc(CN3CCN(C(=O)c4ccnnc4O)CC3)c2)n1 [TA1066, methyl (S)-3-(4-cyanophenyl)-2-((4-(((5-fluoro-1H-benzo[d]imidazol-2-yl)methyl)amino)-6-((3-((4-(3-hydroxypyridazine-4-carbonyl)piperazin-1-yl)methyl)phenyl)amino)-1,3,5-triazin-2-yl)amino)propanoate] |
| < 20 µM | > 100 µM | COCCOCCNC(=O)[C@H](Cc1ccc(C#N)cc1)Nc1nc(NCc2nc3cc(F)ccc3[nH]2)nc(Nc2cccc(CN3CCN(C(=O)c4nccnc4O)CC3)c2)n1 [TA1025, (S)-3-(4-cyanophenyl)-2-((4-(((5-fluoro-1H-benzo[d]imidazol-2-yl)methyl)amino)-6-((3-((4-(3-hydroxypyrazine-2-carbonyl)piperazin-1-yl)methyl)phenyl)amino)-1,3,5-triazin-2-yl)amino)-N-(2-(2-methoxyethoxy)ethyl)propanamide] |
| < 20 µM | > 100 µM | COC(=O)[C@H](Cc1ccc(C#N)cc1)Nc1nc(NCc2nc3cc(Cl)ccc3[nH]2)nc(Nc2cccc(CN3CCN(C(=O)c4nccnc4O)CC3)c2)n1 [TA1059, methyl (S)-2-((4-(((5-chloro-1H-benzo[d]imidazol-2-yl)methyl)amino)-6-((3-((4-(3-hydroxypyrazine-2-carbonyl)piperazin-1-yl)methyl)phenyl)amino)-1,3,5-triazin-2-yl)amino)-3-(4-cyanophenyl)propanoate] |
| < 20 µM | 20 to 100 µM | COC(=O)[C@H](Cc1ccccc1)Nc1nc(NCc2nc3cc(F)ccc3[nH]2)nc(Nc2cccc(CN3CCN(C(=O)c4nccnc4O)CC3)c2)n1 [TA1065, methyl (4-(((5-fluoro-1H-benzo[d]imidazol-2-yl)methyl)amino)-6-((3-((4-(3-hydroxypyrazine-2-carbonyl)piperazin-1-yl)methyl)phenyl)amino)-1,3,5-triazin-2-yl)-L-phenylalaninate] |
